Structures can show the parent of a compound that is named as a salt.
Assays:
Assay type in all cases: cell-based
[1] = system: Pseudomonas aeruginosa; test: MIC, dilutions in liquid medium, alone and combined with NXL105
Description: (§1) In vitro activity, method of dilutions in liquid medium:
A series of test 96-well microtiter plates are prepared in which the same quantity of sterile nutritive medium is distributed. Increasing quantities of the compound to be studied, namely the antibacterial compound alone and the inventive combination with the compound of formula (I) of example 1, are distributed in each plate in the respective proportions 2:1 and 4:1, and then each plate is inoculated with a bacterial strain of Pseudomonas aeruginosa. After 24 h of incubation in a 37° C. oven, growth inhibition is evaluated by transillumination, which makes it possible to determine the minimum inhibitory concentrations (MICS) expressed in μg/ml.

[2] = system: E. coli; test: microbe, parasite or virus in culture
Description: as §1
(§2) A series of test 96-well microtiter plates are prepared in which the same quantity of sterile nutritive medium is distributed. […] After 24 h of incubation in a 37° C. oven, growth inhibition is evaluated by transillumination, which makes it possible to determine the minimum inhibitory concentrations (MICS) expressed in μg/ml.

[3] = system: E. cloacae; test: MIC, dilutions in liquid medium, alone and combined with NXL105
Description: as §1, §2

[4] = system: K. pneumoniae; test: as above
Description: as §1, §2

[5] = system: K. oxytoca; test: as above
[6] = system: C. freundii; test: as above

Cn1ncc2c1[C@@H](CN)N1C[C@H]2N(OS(=O)(=O)O)C1=O (relative stereo) [NXL105, Sodium and Trifluoroacetate Salts of trans 8-(aminomethyl)-4,8-dihydro-1-methyl-5-(sulphooxy)-4,7-methano-7H-pyrazolo[3,4-e][1,3]diazepin-6(5H)-one]
MIC ([1]; P. aeruginosa 391HG2): 1.000 µg/mL | MIC ([1]; P. aeruginosa 391HG21): 0.500 µg/mL | MIC ([1]; P. aeruginosa 391HG38): 32.000 µg/mL | MIC ([1]; P. aeruginosa 391HG39): 4.000 µg/mL | MIC ([1]; P. aeruginosa 391HG58): 1.000 µg/mL | MIC ([1]; P. aeruginosa 391HG118): 0.125 µg/mL | MIC ([1]; P. aeruginosa 391HG123): >32 µg/mL | MIC ([1]; P. aeruginosa 391HG158): 32.000 µg/mL | MIC ([1]; P. aeruginosa 391HG271): 32.000 µg/mL | MIC ([1]; P. aeruginosa 391HG329): 2.000 µg/mL | MIC ([1]; P. aeruginosa 391K767): 1.000 µg/mL | MIC ([1]; P. aeruginosa 391K1455): 2.000 µg/mL | MIC ([1]; P. aeruginosa 391K1523): 2.000 µg/mL | MIC ([1]; P. aeruginosa 391K1525): 4.000 µg/mL | MIC ([1]; P. aeruginosa 391K1536): 2.000 µg/mL | MIC ([1]; P. aeruginosa 391K2376): 2.000 µg/mL | MIC ([1]; P. aeruginosa 391K2379): 4.000 µg/mL | MIC ([1]; P. aeruginosa 391K2415): 2.000 µg/mL | MIC ([1]; P. aeruginosa 391KB9): 0.250 µg/mL | MIC ([1]; P. aeruginosa 391KB14): 1.000 µg/mL | MIC ([1]; P. aeruginosa 391KB21): 2.000 µg/mL | MIC ([1]; P. aeruginosa 391KB33): 0.500 µg/mL | MIC ([1]; P. aeruginosa 391KB38): 1.000 µg/mL | MIC ([1]; P. aeruginosa 391KB62): 4.000 µg/mL | MIC ([1]; P. aeruginosa 391KB68): 0.500 µg/mL | MIC ([1]; P. aeruginosa 391KB90): 8.000 µg/mL | MIC ([1]; P. aeruginosa 391KB91): 0.500 µg/mL | MIC ([1]; P. aeruginosa 391KB99): 0.500 µg/mL | MIC ([1]; P. aeruginosa 391KB103): 0.500 µg/mL | MIC ([1]; P. aeruginosa 391KB105): 1.000 µg/mL | MIC ([1]; P. aeruginosa 391KB106): 2.000 µg/mL | MIC ([1]; P. aeruginosa 391KB107): 1.000 µg/mL | MIC ([1]; P. aeruginosa 391KB114): 4.000 µg/mL | MIC ([1]; P. aeruginosa 391KB127): 0.500 µg/mL | MIC ([1]; P. aeruginosa 391KB135): 1.000 µg/mL | MIC ([1]; P. aeruginosa 391KB136): 0.500 µg/mL | MIC ([1]; P. aeruginosa 391KB137): 0.500 µg/mL | MIC ([1]; P. aeruginosa 391KB138): 0.500 µg/mL | MIC ([1]; P. aeruginosa 391KB139): 2.000 µg/mL | MIC ([1]; P. aeruginosa 391KB140): 2.000 µg/mL | MIC ([1]; P. aeruginosa 391KB141): 4.000 µg/mL | MIC ([1]; P. aeruginosa 391KB142): 1.000 µg/mL | MIC ([1]; P. aeruginosa 391KB143): 0.500 µg/mL | MIC ([1]; P. aeruginosa 391KB144): 16.000 µg/mL | MIC ([1]; P. aeruginosa 391QBR2): >32 µg/mL | MIC ([1]; P. aeruginosa 391QBR3): 2.000 µg/mL | MIC ([1]; P. aeruginosa 391QBR4): 2.000 µg/mL | MIC ([1]; P. aeruginosa 391QBR5): 1.000 µg/mL | MIC ([1]; P. aeruginosa 391QBR7): 2.000 µg/mL | MIC ([1]; P. aeruginosa 391QBR8): 2.000 µg/mL | MIC ([1]; P. aeruginosa 391QBR9): 2.000 µg/mL | MIC ([1]; P. aeruginosa 391QBR10): 4.000 µg/mL | MIC ([1]; P. aeruginosa ATCC 27853): 0.060 µg/mL | MIC ([1]; P. aeruginosa C3719): >32 µg/mL | MIC ([1]; P. aeruginosa PA2192): 0.125 µg/mL | MIC ([2]; E. coli 2138, KPC-2 + TEM-1): >32 µg/mL | MIC ([2]; E. coli (no alias), CTX-M-15 + TEM-1 + OXA-1): >32 µg/mL | MIC ([2]; E. coli (no alias), Cephalosporinase): >32 µg/mL | MIC ([2]; E. coli (no alias), SHV-4): >32 µg/mL | MIC ([2]; E. coli (no alias), TEM-3): >32 µg/mL | MIC ([2]; E. coli IND, VEB-1 + CMY-2): 16 µg/mL | MIC ([2]; E. coli TN06, CTX-M-2 + TEM-1): 32 µg/mL | MIC ([2]; E. coli TN13, CTX-M-14 + CMY-2 + TEM-1): 32 µg/mL | MIC ([2]; E. coli Tunisie clone E4, CTX-M-16 + TEM-1): >32 µg/mL | MIC ([3]; E. cloacae 7506, KPC-2 + TEM-1 + KLUC-2): 32 µg/mL | MIC ([3]; E. cloacae (no alias), AmpC): 32 µg/mL | MIC ([3]; E. cloacae, AmpC): >32 µg/mL | MIC ([4]; K. pneumoniae 26, SHV-5): 32 µg/mL | MIC ([4]; K. pneumoniae 60, SHV-2 + TEM-2 + PER): 32 µg/mL | MIC ([4]; K. pneumoniae 157, SHV-5 + TEM-26): >32 µg/mL | MIC ([4]; K. pneumoniae 181, SHV-5 + TEM-10): >32 µg/mL | MIC ([4]; K. pneumoniae 236, SHV-5 + TEM-10): >32 µg/mL | MIC ([4]; K. pneumoniae 238, SHV-2 + TEM-12 + CTX-M-2): >32 µg/mL | MIC ([4]; K. pneumoniae 243, SHV-5 + TEM-63): >32 µg/mL | MIC ([4]; K. pneumoniae 253, SHV-2 + TEM-12 + CTX-M-2): >32 µg/mL | MIC ([4]; K. pneumoniae 427, SHV-1 + TEM-1B + CTX-M-3): >32 µg/mL | MIC ([4]; K. pneumoniae 441, SHV-1 + TEM-2 + PER): >32 µg/mL | MIC ([4]; K. pneumoniae 444, SHV-5 + TEM-2 + PER): >32 µg/mL | MIC ([4]; K. pneumoniae 449, SHV-1 + TEM-2 + PER): 32 µg/mL | MIC ([4]; K. pneumoniae 465, TEM-1B + CTX-M-2): >32 µg/mL | MIC ([4]; K. pneumoniae 1734, FOX-3 + TEM-1): >32 µg/mL | MIC ([4]; K. pneumoniae 9701, CMY-4 + TEM-1): >32 µg/mL | MIC ([4]; K. pneumoniae ATCC 700603, SHV-18): >32 µg/mL | MIC ([4]; K. pneumoniae CL5761, KPC-3): >32 µg/mL | MIC ([4]; K. pneumoniae CL5762, KPC-3): >32 µg/mL | MIC ([4]; K. pneumoniae CL5763, KPC-3): >32 µg/mL | MIC ([4]; K. pneumoniae KOL, MOX-2 + SHV-5 + TEM-1): >32 µg/mL | MIC ([4]; K. pneumoniae KP04, CTX-M-14): >32 µg/mL | MIC ([4]; K. pneumoniae Patient 1BHR, VIM-4 + CTX-M-15 = CMY-4 + TEM-1): 16 µg/mL | MIC ([4]; K. pneumoniae Patient F, VIM-1 + SHV-5): >32 µg/mL | MIC ([4]; K. pneumoniae SLK54, ACC-1 + TEM-1): >32 µg/mL | MIC ([4]; K. pneumoniae TN58467, DHA-1 + SHV-2a + TEM-1): >32 µg/mL | MIC ([4]; K. pneumoniae Tunisie clone K1, CTX-M-16 + OXA-1): >32 µg/mL | MIC ([4]; K. pneumoniae Tunisie clone K4, CTX-M-15 + TEM-1 + OXA-1): 16 µg/mL | MIC ([4]; K. pneumoniae VA8, KPC-3): >32 µg/mL | MIC ([4]; K. pneumoniae VAKP, KPC-2): >32 µg/mL | MIC ([4]; K. pneumoniae YC, KPC-2): >32 µg/mL | MIC ([5]; K. oxytoca 1431, TEM-129): 32 µg/mL | MIC ([5]; K. oxytoca 16944, OXY-2, TEM-1): >32 µg/mL | MIC ([6]; C. freundii (no alias), AmpC + TEM-1): 16 µg/mL | MIC ([6]; C. freundii (no alias, table row r121), AmpC): 16 µg/mL | MIC ([6]; C. freundii (no alias, table row r122), AmpC): 32 µg/mL | MIC ([6]; C. freundii (no alias, table row r123), AmpC): >32 µg/mL | MIC ([6]; C. freundii (no alias, table row r125), AmpC): 32 µg/mL

Reference: US20100092443A1, “NOVEL COMBINATIONS OF NITROGENATED HETEROCYCLIC ANTIBACTERIAL COMPOUNDS WITH OTHER ANTIBACTERIAL COMPOUNDS AND THE USE OF SAME AS DRUGS” (priority 2008, published 2010)
